Assay results as given in patent publication US20220386606A1, “SPECIFICALLY SUBSTITUTED 3-PHENYL-5-SPIROCYCLOPENTYL-3-PYRROLIN-2-ONES AND THEIR USE AS HERBICIDES” (Bayer Aktiengesellschaft, priority 2019, published 2022).

What was measured:
[1] = tested on: HORMU; assay: Post-emergence herbicidal action against HORMU; format: in vivo, Hordeum murinum; details: 80 g/ha, visual assessment about 3 weeks after treatment vs untreated controls
Protocol: Seeds of monocotyledonous and dicotyledonous weed and crop plants are laid out in sandy loam soil in wood-fiber pots, covered with soil and cultivated in a greenhouse under good growth conditions. 2 to 3 weeks after sowing, the test plants are treated at the one-leaf stage. The compounds of the invention, formulated in the form of wettable powders (WP) or as emulsion concentrates (EC), are then sprayed onto the green parts of the plants as aqueous suspension or emulsion at a water application rate equating to 600 to 800 l/ha with addition of 0.2% wetting agent. After the test plants have been left to stand in the greenhouse under optimal growth conditions for about 3 weeks, the action of the preparations is assessed visually in comparison to untreated controls (herbicidal action in percent (%): 100% activity=the plants have died, 0% activity=like control plants).

[2] = tested on: DIGSA; assay: Post-emergence herbicidal action against DIGSA; format: in vivo, Digitaria sanguinalis; details: 80 g/ha, visual assessment about 3 weeks after treatment vs untreated controls
How it was run: (§1)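 Weeds were grown in sandy loam in a greenhouse and treated at the one-leaf stage, 2 to 3 weeks after sowing. WP or EC formulations were sprayed onto green parts at 600 to 800 l/ha water with 0.2% wetting agent. Visual % action versus untreated controls was scored after about 3 weeks.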

[3] = tested on: LOLRI; assay: Post-emergence herbicidal action against LOLRI; format: in vivo, Lolium rigidum; details: 80 g/ha, visual assessment about 3 weeks after treatment vs untreated controls
How it was run: as §1

[4] = tested on: AVEFA; assay: Post-emergence herbicidal action against AVEFA; format: in vivo, Avena fatua; details: 80 g/ha, visual assessment after about 3 weeks
How it was run: as §1

[5] = tested on: ECHCG; assay: Post-emergence herbicidal action against ECHCG; format: in vivo, Echinochloa crus-galli; details: 80 g/ha, visual assessment about 3 weeks after treatment vs untreated controls
How it was run: as §1

[6] = tested on: ALOMY; assay: Post-emergence herbicidal action against ALOMY; format: in vivo, Alopecurus myosuroides; details: 80 g/ha, visual assessment after about 3 weeks
How it was run: as §1

[7] = tested on: SETVI; assay: Post-emergence herbicidal action against SETVI; format: in vivo, Setaria viridis; details: 80 g/ha, visual assessment about 3 weeks after treatment vs untreated controls
How it was run: as §1

[8] = tested on: AVEFA; assay: Pre-emergence herbicidal action against AVEFA; format: in vivo, Avena fatua; details: 320 g/ha, scored visually after 3 weeks vs untreated controls
How it was run: (§2)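 Herbicidal activity is expressed as percent visual damage compared with untreated controls, where 100% means dead plants, assessed 3 weeks after pre-emergence treatment of sown, soil-covered seeds in sandy loam under greenhouse conditions.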

[9] = tested on: VERPE; assay: Pre-emergence herbicidal action against VERPE; format: in vivo, Veronica persica; details: 320 g/ha
How it was run: as §2

[10] = tested on: MATIN; assay: Pre-emergence herbicidal action against MATIN; format: in vivo; details: 320 g/ha
How it was run: as §2

[11] = tested on: VIOTR; assay: Pre-emergence herbicidal action against VIOTR; format: in vivo, Viola tricolor; details: 320 g/ha
How it was run: as §2

[12] = tested on: ECHCG; assay: Pre-emergence herbicidal action against ECHCG; format: in vivo, Echinochloa crus-galli; details: 320 g/ha, scored visually after 3 weeks vs untreated controls
How it was run: as §2

[13] = tested on: LOLRI; assay: Pre-emergence herbicidal action against LOLRI (Table 8, titled post-emergence at 320 g/ha); format: in vivo, Lolium rigidum; details: table stands in the pre-emergence section
How it was run: as §2

[14] = tested on: AMARE; assay: Pre-emergence herbicidal action against AMARE; format: in vivo, Amaranthus retroflexus; details: 320 g/ha
How it was run: as §2

[15] = tested on: DIGSA; assay: Pre-emergence herbicidal action against DIGSA; format: in vivo, Digitaria sanguinalis; details: 320 g/ha, scored visually after 3 weeks vs untreated controls
How it was run: as §2

[16] = tested on: ALOMY; assay: Pre-emergence herbicidal action against ALOMY; format: in vivo, Alopecurus myosuroides; details: 320 g/ha, scored visually after 3 weeks vs untreated controls
How it was run: as §2

[17] = tested on: POLCO; assay: Pre-emergence herbicidal action against POLCO; format: in vivo, Polygonum convolvulus; details: 320 g/ha
Text: Seeds of monocotyledonous and dicotyledonous weed plants and crop plants are laid out in sandy loam soil in wood-fiber pots and covered with soil. The compounds of the invention, formulated in the form of wettable powders (WP) or as emulsion concentrates (EC), are then applied to the surface of the covering soil as aqueous suspension or emulsion at a water application rate equating to 600 to 800 L/ha with addition of 0.2% wetting agent.
After the treatment, the pots are placed in a greenhouse and kept under good growth conditions for the trial plants. The damage to the test plants is scored visually after a test period of 3 weeks by comparison with untreated controls (herbicidal activity in percent (%): 100% activity=the plants have died, 0% activity=like control plants).

[18] = tested on: SETVI; assay: Pre-emergence herbicidal action against SETVI; format: in vivo, Setaria viridis; details: 320 g/ha, scored visually after 3 weeks vs untreated controls
How it was run: as §2

Row | Structure (SMILES) | Post-emergence action against HORMU in % [1] [%] | Post-emergence action against DIGSA in % [2] [%] | Post-emergence action against LOLRI in % [3] [%] | Post-emergence action against AVEFA in % [4] [%] | Post-emergence action against ECHCG in % [5] [%] | Post-emergence action against ALOMY in % [6] [%] | Post-emergence action against SETVI in % [7] [%] | Pre-emergence action against AVEFA in % [8] [%] | Pre-emergence action against VERPE in % [9] [%] | Pre-emergence action against MATIN in % [10] [%] | Pre-emergence action against VIOTR in % [11] [%] | Pre-emergence action against ECHCG in % [12] [%] | Pre-emergence herbicidal action against LOLRI in % [13] [%] | Pre-emergence action against AMARE in % [14] [%] | Pre-emergence action against DIGSA in % [15] [%] | Pre-emergence action against ALOMY in % [16] [%] | Pre-emergence action against POLCO in % [17] [%] | Pre-emergence action against SETVI in % [18] [%]
1 | CC#Cc1cc(Cl)c(C2=C(OC(=O)OCC)C3(CCC(COC)C3)NC2=O)c(CC)c1 (stereo not drawn) [Example P-15] | 100 | 100 | 100 | 100 | 100 | 100 | 100 | – | – | – | – | – | – | – | – | – | – | –
2 | C#CCOCC1CCC2(C1)NC(=O)C(c1c(C)cc(C#CC)cc1Cl)=C2O (stereo not drawn) [Example I-79] | – | 100 | 100 | 90 | 100 | 90 | 100 | 100 | 80 | 90 | 100 | 100 | 100 | 100 | 100 | 100 | 90 | 100
3 | C=CCOCC1CCC2(C1)NC(=O)C(c1c(C)cc(C#CC)cc1Cl)=C2O (stereo not drawn) [Example I-46] | – | 90 | 90 | – | 100 | – | 100 | 90 | – | 90 | 100 | 100 | 100 | 100 | 100 | 100 | 90 | 100
4 | C=CCOCC1CCC2(C1)NC(=O)C(c1c(C)cc(C#CC)cc1Br)=C2O (stereo not drawn) [Example I-70] | – | 90 | 90 | – | 100 | 90 | 100 | 100 | – | 80 | 100 | 100 | 100 | – | 100 | 100 | 80 | 100
5 | CC#Cc1cc(C)c(C2=C(O)C3(CCC(COCCOC)C3)NC2=O)c(Cl)c1 (stereo not drawn) [Example I-51] | – | 100 | 90 | 100 | 100 | 100 | 100 | 100 | 100 | 100 | 100 | 100 | 100 | 100 | 100 | 100 | 80 | 100
